Laboratory results: US5574059A, “Treating disorders mediated by vascular smooth muscle cell proliferation” (priority 1995, dated 1996)
“Also recorded” adds a separate entry of the source.

Assays:
[1] = test system: I2 imidazoline receptors; assay: inhibition of 3H-idazoxan (5 nM) binding to rat aortic smooth muscle cell membranes; settings: for inhibition of 3H-idazoxan binding, in words / Ki: 3H-idazoxan 5 nM; for Ki: Table 2, rat aortic smooth muscle cell membranes, read-out: Ki
Method: (§1) Binding to I2 imidazoline receptors is determined by the following assay. Membranes are prepared from cultured cells for ligand binding as described in Regunathan, S., et al, Biochem. Pharmacol. 45, 1667-1675 (1993) and Regunathan, S., et al, J. Neurosci. Res. 34, 681-688 (1993) and the disclosure in these on this is incorporated herein by reference. In particular, harvested rat aortic smooth muscle cells are homogenized in Hepes-sucrose buffer (pH 7.4) with a Teflon-glass homogenizer and centrifuged at 1000 × g for 10 minutes. The pellets are suspended in ice-cold Tris-HCl buffer (pH 7.7) with 5mM ethylene diamine tetracetic acid and homogenized using a Polytron (Brinkman Instruments) for 10 seconds. The homogenate is centrifuged at 40,000 × g for 30 minutes to produce a membrane pellet. The membrane pellet is washed three times by resuspending in buffer and re-centrifuging. The washed pellet is suspended in fresh Tris-HCl buffer (pH 7.4) to provide approximately 100 μg protein per assay tube. Binding assays are performed in Tris-HCl buffer (pH 7.7) using 5 nM of […]. Non-specific binding is defined by 100 μM of unlabelled idazoxan which will inhibit the specific binding of ^3 H-idazoxan. Thus the binding remaining in the presence 100 μM of idazoxan is due to non-specific binding and this will be substracted from total binding to calculate the specific binding. Following incubation at 25° C. for 30 minutes, reaction is terminated by rapid vacuum filtration over Whatman GF/B filters and washed with 10 ml of ice-cold buffer. Filters are suspended in scintillation fluid and radioactivity counted in a liquid scintillation counter. Membrane protein is assayed by Coomassie Blue method (Pierce) using bovine serum albumin as standard.
Determination of inhibition constant (Ki) for each drug is determined as follows: The binding of ^3 H-idazoxan to membranes of vascular smooth muscle cells is determined in the presence of 0.1 nM to 100 μM concentrations of potential drug. The percent inhibition of specific binding of ^3 H-idazoxan by each concentration is calculated and plotted against concentration. The data is analyzed by non-linear curve fitting program, LIGAND and the IC50 value for each potential drug is calculated. The affinity for each drug (Ki) for I2 imidazoline receptors is calculated using the formula Ki =IC50 /1+L/Kd where L is the concentration of ^3 H-idazoxan used for binding and Kd is the dissociation constant for ^3 H-idazoxan for I2 imidazoline receptors. The dissociation constant (Kd) is determined by Scatchard analysis of the saturation binding of ^3 H-idazoxan using the formula [formula] where B and F are the amount of bound and free ligand, respectively, and Bmax is the number of binding sites.
(§2) Primary cultures of rat-aortic smooth muscle cells were prepared by a modification (described in Erlinge, Do, et al, Am. J. Physiol. 265, H1089-1097, 1993) of the method of Meyer-Lehnert and Schrier (Meyer-Lehnert, H., et al, Hypertension 13,350-361, 1989), the disclosure of these cited articles being incorporated herein by reference. Briefly, rats were killed by anesthetic overdose and the aorta were removed and incubated with collagenase (2 mg/ml) in Dulbecco's modified Eagle's minimum essential medium (DMEM). The vessel was stripped of adventitia, cut longitudinally and the intima scraped away. After further collagenase treatment, the remaining tissue was passed 20 times through 18 and 16 gauge needles. The resulting cell suspension was centrifuged at 500 × g for 5 minutes and resuspended in DMEM containing penicillin (100 units/ml), streptomycin (100 μg/ml), 2 mM L-glutamine and 10% fetal calf serum. The suspended cells were plated in T-75 flasks, cultured until confluent, and subcultured in 100 mm plates. The confluent cells were harvested and membranes were prepared. Cell viability was determined by trypan blue exclusion.

[2] = test system: rat aortic smooth muscle cells; assay: serum-stimulated proliferation, 3H-thymidine incorporation into DNA; assay type: cell-based; settings: 10% fetal calf serum stimulated; for IC50: Rattus norvegicus, read-out: 3H-thymidine incorporated (IC50); for IC50 / 3H-thymidine incorporated (IC50), N symbol: 24 h
Method: (§3) Inhibition of serum-stimulated proliferation of rat aortic smooth muscle cells is determined as follows: The antiproliferative effect of potential drug is determined by measuring the incorporation of ^3 H-thymidine into cellular DNA. Exposure of quiescent vascular smooth muscle cell to serum, which contains many growth factors, results in a large increase in cellular proliferation as measured by ^3 H-thymidine incorported into DNA. The inhibitory effect of potential drug on serum-stimulated proliferation is tested by adding a drug before the addition of serum and determining if the serum-stimulated proliferation is reduced. […] In that event, antagonizing of the antiproliferative effect of idazoxan is determined by adding antagonist before the addition of idazoxan to serum-stimulated vascular smooth muscle cells.
In this experiment, the proliferation of vascular smooth muscle cells was determined by measuring DNA replication. The incorporation of ^3 H-thymidine into DNA was used to measure the replication of DNA as described in Erlinge, D., et al, Am. J. Physiol. 265, H1089-H1097 (1993) which is incorporated herein by reference.
(§4) Rat aortic smooth muscle cells prepared as described in In Vitro Example 1 were plated into 24-well plates at a density of about 30,000 cells/well in 10% fetal calf serum (FCS). After 48 hours, the cells were starved in 0.5% FCS for another 48 hours to decrease proliferation and induce quiescence. The medium was replaced by serum-free medium 24 hours prior to addition of drug (drugs are described below) and 10% fetal calf serum or only 10% fetal calf serum in the case of the control. The cells were then incubated for 24 hours and ^3 H-thymidine (1 μCi/well) was added at hour 20. At the end of the 24 hour period, the medium was aspirated and the cells were washed three times with phosphate-buffered saline and twice with ice-cold trichloroacetic acid. Fixed cells were then solubilized in 0.2M NaOH and sonicated. A 100 μl aliquot was used for scintillation counting.

[3] = test system: α2 -adrenergic receptors; assay: specific binding of 3H-PAC and 3H-rauwolscine to smooth muscle cell membranes; set-up: species or system rat; settings: for specific binding of 3H-PAC / 3H-rauwolscine: 5 nM ligand, non-specific binding defined by 100 μM cold ligand; for binding selectivity of radioligand, in words (α2-adrenergic receptors): with epinephrine competition
Method: as §2, with “exclusion. Smooth muscle cells were phenotypically defined by immunostaining with anti-smooth muscle actin (Sigma). The cultured cells were usually used for only about 10 passages after which they were replaced by freshly prepared cells.” for “exclusion.”
Membranes were prepared from the cultured cells as described in Regunathan et al, Biochem. Pharmacol. 45, 1667-1675 (1993). Membranes were incubated with 5 nM of ^3 H-idazoxan, ^3 H-PAC or ^3 H-rauwolscine with non-specific binding defined by 100 μM cold ligand as described above.

[4] = test system: rat aortic smooth muscle cells; assay: antagonism of the antiproliferative effect in serum-stimulated smooth muscle cells; assay type: cell-based
Method: as §3
as §4, with “After” for “Rat aortic smooth muscle cells prepared as described in In Vitro Example 1 were plated into 24-well plates at a density of about 30,000 cells/well in 10% fetal calf serum (FCS). After”
To test this, the effect of tolazoline (100 μM) on the concentration/response curve was determined.

[5] = test system: I2 imidazoline receptors; assay: saturation/specific binding of 3H-idazoxan to smooth muscle cell membranes (Scatchard analysis); set-up: species or system rat
Method: as §1, with “Membrane protein is assayed by Coomassie Blue method (Pierce) using bovine serum albumin as standard.” left out
Primary cultures of rat-aortic smooth muscle cells were prepared by a modification (described in Erlinge, Do, et al, Am. J. Physiol. 265, H1089-1097, 1993) of the method of Meyer-Lehnert and Schrier (Meyer-Lehnert, H., et al, Hypertension 13,350-361, 1989), the disclosure of these cited articles being incorporated herein by reference. […] Cell viability was determined by trypan blue exclusion.

Structure (SMILES) | inhibition of 3H-idazoxan binding, in words [1] | Ki [1] [µM] | inhibition of vascular smooth muscle cell proliferation, in words [2] | 3H-thymidine incorporated (IC50), N symbol [2] | other results
N=C(N)NC(=O)c1nc(Cl)c(N)nc1N [Amiloride] | low | 75 ± 9.6 | – | – | –
c1ccc(C2CC2)c(OCC2=NCCN2)c1 [Cirazoline, cyclopropyl phenoxy imidazoline] | – | – | – | – | IC50 [2]: 286 ± 19 µM
Clc1cccc(Cl)c1N=C1NCCN1 [Clonidine] | – | 2.5 ± 0.65 | had no effect | N | –
CNC[C@H](O)c1ccc(O)c(O)c1 [Epinephrine] | – | – | – | – | reduction of 3H-idazoxan binding ([1]; even at 100 μM epinephrine, failed to reduce by greater than): ≤ 10%; inhibition of specific binding of 3H-PAC ([3]; epinephrine 10 μM): completely inhibited; inhibition of specific binding of 3H-rauwolscine ([3]; epinephrine 10 μM): completely inhibited
N=C(N)N/N=C/c1c(Cl)cccc1Cl [Guanabenz] | low | 51 ± 6.5 | – | – | –
COc1nc(C)nc(Cl)c1N=C1NCCN1 [Moxonidine] | low | 55 ± 4 | had no effect | N | –
c1ccc2c(CC3=NCCN3)cccc2c1 [Naphazoline, 2-(1-naphthylmethyl) imidazoline] | – | – | – | – | IC50 [2]: 52.3 ± 5.6 µM
Cc1ccc(N(CC2=NCCN2)c2cccc(O)c2)cc1 [Phentolamine] | – | 10.5 ± 1.4 | – | N | –
COC(=O)[C@H]1[C@H]2C[C@H]3c4[nH]c5ccccc5c4CCN3C[C@H]2CC[C@@H]1O [Rauwolscine] | without effect | > 100 | had no effect | N | effect of rauwolscine on the anti-proliferative response [4]: blocked
C1COC(NC(C2CC2)C2CC2)=N1 [Rilmenidine] | low | 85 ± 9 | had no effect | N | –
c1ccc(CC2=NCCN2)cc1 [Tolazoline] | binding with high affinity | 0.256 ± 0.023 | without any effect; also recorded: failed to inhibit cellular proliferation | N | effect on the concentration/response curve for idazoxan ([4]; tolazoline 100 μM): markedly shifted the concentration/response curve for idazoxan to the right
Nc1cc(Cl)c(NC2=NCCN2)c(Cl)c1 [^3 H-PAC] | – | – | – | – | specific binding of 3H-PAC / 3H-rauwolscine [3]: greater than 70%; binding selectivity of radioligand, in words (α2-adrenergic receptors) [3]: primarily bind to α2 -adrenergic receptors
c1ccc2c(c1)OCC(C1=NCCN1)O2 (stereo not drawn) [^3 H-idazoxan] | – | – | – | – | specific binding of 3H-idazoxan ([5]; 5 nM ligand, non-specific binding defined by 100 μM cold ligand): greater than 70%; Kd ([5]; Scatchard analysis, single-site fit, in presence of 10 μM epinephrine): 0.0089 ± 0.0012 µM; binding selectivity of radioligand, in words (non-adrenergic sites) ([5]; with epinephrine competition): binds almost exclusively to non-adrenergic sites
COC(=O)C1C(O)CCC2CN3CCc4c([nH]c5ccccc45)C3CC21 (stereo not drawn) [^3 H-rauwolscine] | – | – | – | – | specific binding of 3H-PAC / 3H-rauwolscine [3]: greater than 70%; binding selectivity of radioligand, in words (α2-adrenergic receptors) [3]: primarily bind to α2 -adrenergic receptors
